Laboratory results as given in patent US20260152533A1, “COMBINATION INHIBITORS FOR TREATING FIBROSIS” (Memorial Sloan-Kettering Cancer Center, priority 2021, published 2026).

How the values were obtained:
Type in all cases: cell-based, mouse
NIH-3T3 cells [1] = experiment: Quantification of gene expression (qPCR), fibroblasts; conditions: for Col1a1 mRNA expression: PC-deleted cells, 10% Gln, 48 hours (FIG. 5D, FIG. 11N)
Experimental: Total RNA was isolated from fibroblasts with Trizol (Life Technologies) according to the manufacturer's instructions, and […] RNA was used for cDNA synthesis using iScript (Bio-Rad). Real-time qPCR analysis was performed in technical triplicates using 1:40 diluted cDNAs and 0.1 μM forward and reverse primers together with Power SYBR Green (Life Technologies) in a QuantStudio 7 Flex (Applied Biosystems). Gene expression was quantified in Microsoft Excel 365 as relative expression ratio using primer efficiencies calculated by a relative standard curve. The geometric mean of the endogenous control genes 18 s, Actb and Rplp0 was used as reference sample.

NIH-3T3 cells [2] = experiment: Relative metabolite abundance (GC-MS), NIH-3T3 cells; conditions: for TGFβ-induced depletion of TCA cycle intermediates and NEAAs: 10% Gln, metabolite 5 mM, 48 hours (FIG. 8I)
Experimental: Cells were plated in six-well cell culture plates at a concentration aimed to reach 0.5-1×10^6 cells at the time of harvest. For quantification of relative metabolite abundance, cells were cultured with glutamine-free DMEM containing different concentrations of L-glutamine and supplemented with 10% dialyzed FBS and in some experiments were treated with TGFβ for 48 hours. For the [U-^13C]and [3,4-^13C]glucose tracing experiments, cells were cultured as above, and in the last 8 hours media was replaced with DMEM without D-glucose and L-glutamine supplemented with 2 mM or 0.2 mM L-glutamine and 10 mM [U-^13C]or [3,4-^13C]D-glucose (Cambridge Isotope Laboratories) and 10% dialyzed FBS. […] For relative quantification of metabolites by gas chromatography-mass spectroscopy (GC-MS), cells were washed briefly with PBS, which was then fully aspirated and metabolism was quenched by immediately adding 1 mL of 80:20 methanol:water stored at −80° C. containing 20 μM deuterated 2-hydroxyglutarate (d5-2HG) as an internal standard. […]
GC-MS measurements were performed as described before^11. Ions used for quantification of metabolite levels were as follows: d5-2HG m/z 354; citrate m/z 465; alpha-ketoglutarate m/z 304; succinate m/z 247; fumarate m/z 245; malate m/z 335; aspartate m/z 232; hydroxyproline m/z 332; proline m/z 216; glutamate m/z 246; glutamine m/z 245; lactate m/z 219; pyruvate m/z 174. […] For relative quantification of cell samples, integrated peak areas were normalized to the internal standard d5-2HG and to the packed cell volume of each sample. Absolute quantification of hydroxyproline in tumor acid hydrolysates was performed against a standard curve of commercial trans-4-hydroxy-L-proline (Sigma). […]

NIH-3T3 cells [3] = experiment: Translation assay (OPP), NIH-3T3 cells; conditions: TGFβ
Experimental: Cells were treated as indicated and incubated with 20 μM O-propargyl-puromycin (OPP, Thermo Scientific) for the last 1 hour of the experiment. Cells were harvested by trypsinization and fixed with methanol at −20° C., followed by permeabilization with 0.5% Triton X-100 in phosphate-buffered saline (PBS).

NIH-3T3 cells [4] = experiment: tRNA charging assay, NIH-3T3 cells
Experimental: Charging status of the indicated tRNA isodecoders was measured as previously described^20. In brief, Trizol-chloroform extracts were precipitated with 2.7× volumes of cold ethanol in the presence of 30 μg GlycoBlue (ThermoFisher) overnight. Samples were resuspended in 0.3 M acetate buffer (pH 4.5) with 10 mM ethylenediamine tetraacetic acid (EDTA) and precipitated overnight. Samples were resuspended in 10 mM acetate buffer with 1 mM EDTA. 2 μg of each RNA sample was treated with 10 mM of either sodium periodate (Sigma) (‘oxidized sample’) or sodium chloride (‘non-oxidized sample’) and incubated for 20 minutes at room temperature in the dark. Reactions were quenched with glucose for 15 minutes. Yeast Phe-tRNA (Sigma) was spiked into each sample, followed by ethanol precipitation. Samples were resuspended in 50 mM Tris buffer (pH 9) and incubated for 50 minutes at 37° C., quenched with acetate buffer and precipitated. […] Reverse transcription was performed with SuperScript IV reverse transcriptase (Thermo Scientific) according to the manufacturer's instructions, with a primer complementary to the DNA adaptor. cDNA samples were subjected to qPCR with tRNA isodecoder-specific primer pairs listed in Supplementary Table 1. Ct values obtained with primers specific for yeast Phe-tRNA were subtracted from Ct values obtained with isodecoder-specific primers. The charged fraction was calculated based on the relative difference between the delta-Ct value of a non-oxidized (representing total) and oxidized (representing charged) sample for each primer pair.

## COC(=O)CC[C@H](N)C(=O)OC [dm-Glu, L-glutamic acid dimethylester]
NIH-3T3 cells [1]
  Col1a1 mRNA expression: rescued
NIH-3T3 cells [2]
  TGFβ-induced depletion of TCA cycle intermediates and NEAAs: rescued

## COC(=O)CCC(=O)C(=O)OC [dm-αKG, dimethyl alpha-ketoglutarate]
NIH-3T3 cells [3]; 10% Gln, dm-αKG (FIG. 2B)
  translation: promoted
NIH-3T3 cells [1]
  Col1a1 mRNA expression: rescued
NIH-3T3 cells [2]
  TGFβ-induced depletion of TCA cycle intermediates and NEAAs: rescued
NIH-3T3 cells [4]; 10% Gln, TGFβ 2 ng/mL, dm-αKG 5 mM with or without MSO 2 mM, 48 hours (FIG. 2A)
  charging of glutamine-tRNA: restored

## TGFβ: transforming growth-factor beta; TGFβ-1 purchased from Peprotech
NIH-3T3 cells [3]; low Gln (10%), 48 hours, compared to control cells (FIG. 1F)
  bulk translation: reduced
NIH-3T3 cells [1]; all fibroblast types analysed, 100% Gln, TGFβ 24 hours
  PC transcript levels: reduced
NIH-3T3 cells [2]; low Gln (10%), TGFβ, 48 hours (FIG. 1H)
  free levels of most TCA cycle intermediates: substantially reduced
NIH-3T3 cells [4]; low Gln (10%), TGFβ, 48 hours (FIG. 1D)
  charging state of glutamine-tRNA: profound uncharging
